Data: ChEMBL document CHEMBL5036340 (Eur J Med Chem, 2021)
Calls of active or inactive are those of the source. The rule behind the calls is not given here.

Tests used:
Acetylcholinesterase = target: T1, Acetylcholinesterase (Rattus norvegicus, UniProt P37136); assay: Inhibition of rat cortex AChE using acetylthiocholine iodide as substrate by Ellman's method
T1 sequence (P37136 whole entry): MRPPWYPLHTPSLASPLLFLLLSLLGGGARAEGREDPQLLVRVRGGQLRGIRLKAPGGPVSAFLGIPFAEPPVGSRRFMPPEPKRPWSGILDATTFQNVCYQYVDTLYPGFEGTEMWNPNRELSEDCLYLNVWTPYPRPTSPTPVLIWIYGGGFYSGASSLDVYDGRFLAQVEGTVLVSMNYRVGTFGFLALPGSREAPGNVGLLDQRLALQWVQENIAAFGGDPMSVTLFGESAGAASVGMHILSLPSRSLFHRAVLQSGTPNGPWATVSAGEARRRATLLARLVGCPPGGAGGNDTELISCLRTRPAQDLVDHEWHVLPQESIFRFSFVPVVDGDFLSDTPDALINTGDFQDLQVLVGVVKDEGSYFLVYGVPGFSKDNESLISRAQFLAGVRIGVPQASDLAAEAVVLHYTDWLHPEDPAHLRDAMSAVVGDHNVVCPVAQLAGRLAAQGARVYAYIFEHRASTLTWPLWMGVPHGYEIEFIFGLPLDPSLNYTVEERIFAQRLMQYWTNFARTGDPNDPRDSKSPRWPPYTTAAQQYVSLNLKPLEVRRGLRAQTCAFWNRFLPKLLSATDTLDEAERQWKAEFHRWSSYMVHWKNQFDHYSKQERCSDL

HepG2 = assay: cells; format: functional, cell-based; conditions: Homo sapiens, HepG2, 24 h
Description: Cytotoxicity against human HepG2 cells assessed as reduction in cell viability incubated for 24 hrs by MTT assay

Butyrylcholinesterase = Butyrylcholinesterase (Rattus norvegicus, UniProt Q9JKC1)
Chain of Butyrylcholinesterase (Q9JKC1 whole entry): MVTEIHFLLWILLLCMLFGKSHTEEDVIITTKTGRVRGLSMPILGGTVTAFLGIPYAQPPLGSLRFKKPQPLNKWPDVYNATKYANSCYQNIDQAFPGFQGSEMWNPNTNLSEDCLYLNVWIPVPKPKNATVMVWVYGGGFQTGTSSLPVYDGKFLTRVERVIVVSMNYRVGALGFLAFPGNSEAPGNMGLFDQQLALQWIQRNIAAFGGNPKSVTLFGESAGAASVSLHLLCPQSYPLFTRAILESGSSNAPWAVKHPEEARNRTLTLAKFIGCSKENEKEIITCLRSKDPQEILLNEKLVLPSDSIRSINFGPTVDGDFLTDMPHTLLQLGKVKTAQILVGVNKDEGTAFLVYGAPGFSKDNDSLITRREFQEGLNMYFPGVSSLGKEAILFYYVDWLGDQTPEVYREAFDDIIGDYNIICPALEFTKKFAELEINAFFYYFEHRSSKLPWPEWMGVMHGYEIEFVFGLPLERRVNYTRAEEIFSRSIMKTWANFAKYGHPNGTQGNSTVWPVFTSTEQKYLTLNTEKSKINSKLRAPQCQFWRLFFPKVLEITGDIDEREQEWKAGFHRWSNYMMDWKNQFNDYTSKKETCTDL
Description: Inhibition of rat serum BChE using butyrylthiocholine iodide as substrate by Ellman's method

[1] = target: Voltage-gated inwardly rectifying potassium channel KCNH2 (Homo sapiens, UniProt Q12809)
Chain of Voltage-gated inwardly rectifying potassium channel KCNH2 (Q12809 whole entry): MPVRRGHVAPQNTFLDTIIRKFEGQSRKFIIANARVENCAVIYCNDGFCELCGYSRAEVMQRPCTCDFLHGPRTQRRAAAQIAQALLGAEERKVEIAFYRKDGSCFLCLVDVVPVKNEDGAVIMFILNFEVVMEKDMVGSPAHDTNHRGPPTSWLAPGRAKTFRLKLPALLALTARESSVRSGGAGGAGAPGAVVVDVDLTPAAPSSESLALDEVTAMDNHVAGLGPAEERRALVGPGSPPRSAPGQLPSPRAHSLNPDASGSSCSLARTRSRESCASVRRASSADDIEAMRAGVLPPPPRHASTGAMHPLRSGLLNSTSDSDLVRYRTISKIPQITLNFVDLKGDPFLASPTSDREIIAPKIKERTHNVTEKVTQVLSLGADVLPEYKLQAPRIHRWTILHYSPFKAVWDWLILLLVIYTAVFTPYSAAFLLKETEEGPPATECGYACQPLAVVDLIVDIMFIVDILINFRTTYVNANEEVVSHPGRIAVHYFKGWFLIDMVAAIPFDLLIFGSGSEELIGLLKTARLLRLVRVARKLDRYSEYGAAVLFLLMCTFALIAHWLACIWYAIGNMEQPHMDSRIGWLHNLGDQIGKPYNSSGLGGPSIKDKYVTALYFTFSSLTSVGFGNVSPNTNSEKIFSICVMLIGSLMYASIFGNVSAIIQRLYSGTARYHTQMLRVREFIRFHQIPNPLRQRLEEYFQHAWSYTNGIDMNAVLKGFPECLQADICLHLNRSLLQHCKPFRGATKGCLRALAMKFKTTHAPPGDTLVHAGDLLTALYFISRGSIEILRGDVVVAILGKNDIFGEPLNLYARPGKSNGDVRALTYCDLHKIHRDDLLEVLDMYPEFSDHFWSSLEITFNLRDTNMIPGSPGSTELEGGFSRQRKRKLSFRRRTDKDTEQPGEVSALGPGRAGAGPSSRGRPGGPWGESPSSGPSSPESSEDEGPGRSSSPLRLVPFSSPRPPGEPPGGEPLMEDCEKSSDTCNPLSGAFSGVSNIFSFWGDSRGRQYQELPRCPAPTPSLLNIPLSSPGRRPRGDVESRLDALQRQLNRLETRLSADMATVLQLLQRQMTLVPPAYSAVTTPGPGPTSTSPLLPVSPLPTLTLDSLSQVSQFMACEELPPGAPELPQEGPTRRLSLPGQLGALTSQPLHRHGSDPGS
Description: Inhibition of hERG expressed in CHO-K1 cells assessed as reduction in thallium influx incubated for 30 minutes by FLIPR

in vitro = conditions: rat, HepG2 cells
Description: Ratio of IC50 for cytotoxicity against human HepG2 cells to ratio of IC50 for inhibition of rat cortex AChE

[2] = target: T2, Acetylcholinesterase (Rattus norvegicus) (UniProt P37136); assay: Mixed-type inhibition of rat cortex AChE at 0.5 to 1.5 nM using varying levels of acetylthiocholine iodide as substrate measured at 5 minutes by Ellman's method based Lineweaver-Burk plot analysis; conditions: dose 0.5-1.5 nM
T2 sequence (whole entry): T1 sequence (P37136 whole entry)

[3] = Terminal half life in C57BL/6 mouse plasma at 10 mg/kg, po administered as single dose measured upto 24 hrs by UPLC analysis; format: ADME, organism-based; conditions: read-out: beta t1/2 (converted)
[4] = Terminal half life in C57BL/6 mouse brain at 10 mg/kg, po administered as single dose measured upto 24 hrs by UPLC analysis; format: ADME, organism-based; conditions: read-out: beta t1/2 (converted)
[5] = Terminal half life in C57BL/6 mouse liver at 10 mg/kg, po administered as single dose by UPLC analysis; format: ADME, organism-based; conditions: read-out: beta t1/2 (converted)
[6] = Terminal half life in C57BL/6 mouse kidney at 10 mg/kg, po administered as single dose by UPLC analysis; format: ADME, organism-based; conditions: read-out: beta t1/2 (converted)
[7] = Tmax in C57BL/6 mouse plasma at 10 mg/kg, po administered as single dose measured upto 24 hrs by UPLC analysis; format: ADME, organism-based
[8] = Tmax in C57BL/6 mouse brain at 10 mg/kg, po administered as single dose measured upto 24 hrs by UPLC analysis; format: ADME, organism-based
[9] = Tmax in C57BL/6 mouse liver at 10 mg/kg, po administered as single dose by UPLC analysis; format: ADME, organism-based
[10] = Tmax in C57BL/6 mouse kidney at 10 mg/kg, po administered as single dose by UPLC analysis; format: ADME, organism-based
[11] = Cmax in C57BL/6 mouse plasma at 10 mg/kg, po administered as single dose measured at 2.25 hrs by UPLC analysis; format: ADME, organism-based; design: route oral, dose 10 mg/kg, time 2.25 hrs
[12] = Cmax in C57BL/6 mouse brain at 10 mg/kg, po administered as single dose measured at […] by UPLC analysis; format: ADME, organism-based
[13] = Cmax in C57BL/6 mouse liver at 10 mg/kg, po administered as single dose measured at 1.75 hrs by UPLC analysis; format: ADME, organism-based; design: route oral, time 1.75 hrs, dose 10 mg/kg
[14] = Cmax in C57BL/6 mouse kidney at 10 mg/kg, po administered as single dose measured at 2.50 hrs by UPLC analysis; format: ADME, organism-based; design: route oral, time 2.5 hrs, dose 10 mg/kg
[15] = AUC (0 to t) in C57BL/6 mouse plasma at 10 mg/kg, po administered as single dose measured upto 24 hrs by UPLC analysis; format: ADME, organism-based; design: route oral, dose 10 mg/kg, time <=24; conditions: in vivo
[16] = AUC (0 to infinity) in C57BL/6 mouse plasma at 10 mg/kg, po administered as single dose measured upto 24 hrs by UPLC analysis; format: ADME, organism-based; design: route oral, dose 10 mg/kg, time <=24; conditions: in vivo
[17] = AUC (0 to infinity) in C57BL/6 mouse brain at 10 mg/kg, po administered as single dose measured upto 24 hrs by UPLC analysis; format: ADME, organism-based; design: route oral, dose 10 mg/kg, time <=24; conditions: in vivo
[18] = AUC (0 to infinity) in C57BL/6 mouse liver at 10 mg/kg, po administered as single dose by UPLC analysis; format: ADME, organism-based; design: time infinity, route oral, dose 10 mg/kg; conditions: in vivo
[19] = AUC (0 to infinity) in C57BL/6 mouse kidney at 10 mg/kg, po administered as single dose by UPLC analysis; format: ADME, organism-based; design: route oral, time infinity, dose 10 mg/kg; conditions: in vivo
[20] = MRT (0 to infinity) in C57BL/6 mouse plasma at 10 mg/kg, po administered as single dose measured upto 24 hrs by UPLC analysis; format: ADME, organism-based
[21] = MRT (0 to infinity) in C57BL/6 mouse brain at 10 mg/kg, po administered as single dose measured upto 24 hrs by UPLC analysis; format: ADME, organism-based
[22] = MRT (0 to infinity) in C57BL/6 mouse liver at 10 mg/kg, po administered as single dose by UPLC analysis; format: ADME, organism-based
[23] = MRT (0 to infinity) in C57BL/6 mouse kidney at 10 mg/kg, po administered as single dose by UPLC analysis; format: ADME, organism-based
Hippocampus = assay: Anti-alzheimer activity in theta-burst stimulated C57BL/6 mouse hippocampus CA3 region assessed as enhancement of synaptic strength by measuring long term potentiation in brain slice at 3 mg/kg, po for 4 days by electrophysiological recording relative to control; format: functional, organism-based; conditions: time 4.0 day
Mus musculus = species: Mus musculus; assay: Anti-alzheimer activity in C57BL/6 mouse assessed as decrease in pirenzepine induced LTP at 1 microM pretreated for 90 mins and further incubated with pirenzepine for 30 mins followed by high frequency stimulation by electrophysiological recording; format: functional, organism-based; conditions: time 120.0 min
[24] = Drug concentration in C57BL/6 mouse muscle at 10 mg/kg, po administered as single dose by UPLC analysis; format: ADME, organism-based, Muscle tissue; conditions: in vivo

O=c1ccc2c([nH]1)CCC(NCCCCCCCNc1c3c(nc4cc(Cl)ccc14)CCCC3)C2 (configuration not stated)
IC50 (Acetylcholinesterase): 14.8 nM
IC50 (HepG2): 39200 nM
IC50 (Butyrylcholinesterase): 893 nM
IC50 [1]: 6360 nM
selectivity ratio (in vitro): 2660

O=c1ccc2c([nH]1)CCC(NCCCCCNc1c3c(nc4cc(Cl)ccc14)CCCC3)C2 (configuration not stated)
IC50 (Acetylcholinesterase): 5.66 nM
IC50 (HepG2): 47200 nM
IC50 (Butyrylcholinesterase): 503 nM
IC50 [1]: 7660 nM
selectivity ratio (in vitro): 8340

O=c1ccc2c([nH]1)CCC(NCCCCCCCCCCNc1c3c(nc4cc(Cl)ccc14)CCCC3)C2 (configuration not stated)
IC50 (Acetylcholinesterase): 66 nM
IC50 (HepG2): 17200 nM
IC50 (Butyrylcholinesterase): 3780 nM
IC50 [1]: 2770 nM
selectivity ratio (in vitro): 260

O=c1ccc2c([nH]1)CCC(NCCCNc1c3c(nc4cc(Cl)ccc14)CCCC3)C2 (configuration not stated)
IC50 (Acetylcholinesterase): 0.9 nM
inhibition [2]: Active
IC50 (HepG2): 107000 nM
half-life [3]: 7.89 h
half-life [4]: 7.8 h
half-life [5]: 7.16 h
half-life [6]: 7.49 h
Tmax [7]: 2.25 h
Tmax [8]: 2.75 h
Tmax [9]: 1.75 h
Tmax [10]: 2.5 h
Cmax [11]: 68.3 ng/mL
Cmax at […] [12]: 4.02 ng/mL
Cmax [13]: 148 ng/mL
Cmax [14]: 165 ng/mL
AUCt [15]: 246 ng·h/mL
AUC [16]: 279 ng·h/mL
AUC [17]: 21.86 g/h
AUC [18]: 534.14 g/h
AUC [19]: 1124.93 g/h
MRT inf [20]: 10.8 h
MRT inf [21]: 11.1 h
MRT inf [22]: 8.39 h
MRT inf [23]: 11.1 h
Activity (Hippocampus): Active
Activity (Mus musculus): Active
Drug uptake [24]: Not Active
IC50 (Butyrylcholinesterase): 200 nM
IC50 [1]: 8980 nM
selectivity ratio (in vitro): 119000

O=c1ccc2c([nH]1)CCC(NCCCCCCCCNc1c3c(nc4cc(Cl)ccc14)CCCC3)C2 (configuration not stated)
IC50 (Acetylcholinesterase): 12.7 nM
IC50 (HepG2): 42600 nM
IC50 (Butyrylcholinesterase): 1360 nM
IC50 [1]: 2190 nM
selectivity ratio (in vitro): 3340

O=c1ccc2c([nH]1)CCC(NCCCCNc1c3c(nc4cc(Cl)ccc14)CCCC3)C2 (configuration not stated)
IC50 (Acetylcholinesterase): 2.94 nM
IC50 (HepG2): 110000 nM
IC50 (Butyrylcholinesterase): 347 nM

COc1cc2c(cc1OC)C(=O)C(CC1CCN(Cc3ccccc3)CC1)C2 (configuration not stated) [DONEPEZIL]
IC50 (HepG2): 263000 nM

O=c1ccc2c([nH]1)CCC(NCCNc1c3c(nc4cc(Cl)ccc14)CCCC3)C2 (configuration not stated)
IC50 (Acetylcholinesterase): 17.7 nM
IC50 (HepG2): 214000 nM
IC50 (Butyrylcholinesterase): 401 nM
IC50 [1]: 2410 nM
selectivity ratio (in vitro): 12100

O=c1ccc2c([nH]1)CCC(NCCCCCCCCCNc1c3c(nc4cc(Cl)ccc14)CCCC3)C2 (configuration not stated)
IC50 (Acetylcholinesterase): 29.1 nM
IC50 (HepG2): 35500 nM
IC50 (Butyrylcholinesterase): 1080 nM

O=c1ccc2c([nH]1)CCC(NCCCCCCNc1c3c(nc4cc(Cl)ccc14)CCCC3)C2 (configuration not stated)
IC50 (Acetylcholinesterase): 6.02 nM
IC50 (HepG2): 51300 nM
IC50 (Butyrylcholinesterase): 574 nM
IC50 [1]: 11600 nM
selectivity ratio (in vitro): 8520
